Measured values taken from patent publication US20240101600A1, “FIBROBLAST GROWTH FACTOR RECEPTOR (FGFR)-TARGETING ANTAGONISTIC SHORT PEPTIDE” (WENZHOU MEDICAL UNIVERSITY, priority 2019, published 2024).
Where no end group is shown, it is not given here.

How the values were obtained:
[1] = tested on: B16-F10 cells; test: MTT viability, B16-F10 cells; assay type: cell-based; settings: 48 h with bFGF
Description: (§1) In vitro anti-tumor activity of a short peptide compound P48 Hela229 (1500 cells/100 μl), B16-F10 (1000 cells/100 μl), NCI-H460 (4000 cells/100 μl) and SGC7901 (4000 cells/100 μl) cells were inoculated in 96-well plates. After incubated overnight adherently, the original medium was replaced with a Dulbecco's modified eagle medium (DMEM) containing 0.1% fetal bovine serum (FBS) or a Roswell Park Memorial Institute 1640 (RPMI-1640) medium containing 0.1% FBS, and culture was continued for 24 h. A mixture of P48 and bFGF, or bFGF alone were added into corresponding wells, and incubated for 48 h; an MTT solution (5 mg/mL) prepared by PBS was added to the cells in each well at 37° C., and treated for 4 h. The MTT was removed by aspiration, 150 μL of DMSO was added to each well, shaking was conducted for 10 min, and an optical density (OD) value was quantified with a microplate reader (SpectraMax M2/M2e, Molecular Devices, Sunnyvale, USA) at a wavelength of 490 nm. The percentage of drug growth inhibition rate was calculated by comparing with the bFGF group. […] The experimental procedure was as follows: 10% FBS-containing medium (500 μl) was added to a lower surface of a transwell insertion chamber, the cells together with the drug were inoculated into an upper chamber, and cultured with a serum-free medium (200 μl). […]

[2] = tested on: gastric cancer cells SGC-7901; test: Transwell migration of SGC-7901 cells; assay type: cell-based; settings: 24 h
Description: as §1

[3] = tested on: Hela229 cells; test: MTT viability, Hela229 cells; assay type: cell-based; settings: 48 h with bFGF
Description: as §1

[4] = molecular target: T1, FGFR1C (Homo sapiens, UniProt P11362); test: SPR detection of interaction with FGFR1C; assay type: binding
T1 sequence (P11362 22-376 limits assumed): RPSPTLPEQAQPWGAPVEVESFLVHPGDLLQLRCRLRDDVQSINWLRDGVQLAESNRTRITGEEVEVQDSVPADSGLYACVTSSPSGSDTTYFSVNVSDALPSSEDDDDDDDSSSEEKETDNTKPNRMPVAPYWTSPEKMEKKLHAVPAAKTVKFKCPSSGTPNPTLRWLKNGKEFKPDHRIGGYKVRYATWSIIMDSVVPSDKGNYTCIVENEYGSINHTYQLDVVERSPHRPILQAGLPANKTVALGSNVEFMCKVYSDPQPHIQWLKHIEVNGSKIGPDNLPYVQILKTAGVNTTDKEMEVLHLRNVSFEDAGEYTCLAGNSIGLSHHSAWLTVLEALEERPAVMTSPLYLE
Description: Amino acid sequence of P9 degraded short peptide P48 was analyzed using Amber11 program. An initial structure of the P9 and P48 peptide chains was constructed using a sequence command in a Tleap module of the Amber11 program. Hydrogen atoms were added using the Tleap module of the Amber11 program, a […] TIP3P solvent box was added at a distance of 10 Å from the peptide chain, and counter ions were added to the two systems to keep the system electrically neutral. The system was subjected to 20-ns NPT system simulation to obtain an optimal spatial structure. […] The last 1 ns of trajectory obtained by molecular dynamics simulation of the system was selected to calculate the binding free energy, the molecules of the solvent of water and counter ion were deleted, and conformation was recorded every 10 ps to obtain a total of 101 structures. The binding free energy between FGF2 and FGFR1 were calculated by a molecular mechanics-generalized born surface area (MM-GBSA) method. The binding free energy and energy decomposition of amino acid residues were calculated using an MMPBA.py script provided by the Amber11. […] After bFGF and FGFR1 flew into the sensor chip, P48 (50 μM, 100 μM, 200 μM, 300 μM and 400 μM) was injected into a sensor surface, and the obtained data was analyzed using BIAevaluation software. […]

- binding to FGFR1C [4]: can be bound
- rank of binding degree among FGFRs [4]: FGFR1C has the strongest binding degree
Substance: SPPRYPGGGS-NH2 [P48, Ser-Pro-Pro-Arg-Tyr-Pro-Gly-Gly-Gly-Ser-NH2]
- inhibition of cancer cell viability [1]: can significantly inhibit the viability of cancer cells
- inhibition of cell migration [2]: can inhibit cell migration in a concentration-dependent manner
- inhibition of cancer cell viability [3]: can significantly inhibit the viability of cancer cells
